Measurements reported in patent US10947289B2, “Glyco-modified atrial natriuretic peptide” (priority 2013, dated 2021).

Experiments:
[1] = Detection of test substance in rat plasma by LC-MS/MS (Test Example 3); format: in vivo; conditions: 100 nmol/kg i.v.; for Maximum time of detection after administration: rat plasma, LC-MS/MS, time at which the test substance was finally detected
In short: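 Jugular blood drawn before and 15–240 min after dosing; plasma spiked with stable-isotope hANP internal standard and AcOH/water/DMSO solvent, then passed through a 50K filter with the 3K-retained fraction analysed by LC-MS/MS. Value is the last time point at which test substance was detected.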

human GC-A = molecular target: T1, human GC-A (Homo sapiens, UniProt P16066); test: cGMP elevating activity in CHO/human GC-A cells (Test Example 1); format: cell-based
T1 construct: expressed in transfected cells; host or cells: CHO cells
T1 sequence (P16066 33-1061): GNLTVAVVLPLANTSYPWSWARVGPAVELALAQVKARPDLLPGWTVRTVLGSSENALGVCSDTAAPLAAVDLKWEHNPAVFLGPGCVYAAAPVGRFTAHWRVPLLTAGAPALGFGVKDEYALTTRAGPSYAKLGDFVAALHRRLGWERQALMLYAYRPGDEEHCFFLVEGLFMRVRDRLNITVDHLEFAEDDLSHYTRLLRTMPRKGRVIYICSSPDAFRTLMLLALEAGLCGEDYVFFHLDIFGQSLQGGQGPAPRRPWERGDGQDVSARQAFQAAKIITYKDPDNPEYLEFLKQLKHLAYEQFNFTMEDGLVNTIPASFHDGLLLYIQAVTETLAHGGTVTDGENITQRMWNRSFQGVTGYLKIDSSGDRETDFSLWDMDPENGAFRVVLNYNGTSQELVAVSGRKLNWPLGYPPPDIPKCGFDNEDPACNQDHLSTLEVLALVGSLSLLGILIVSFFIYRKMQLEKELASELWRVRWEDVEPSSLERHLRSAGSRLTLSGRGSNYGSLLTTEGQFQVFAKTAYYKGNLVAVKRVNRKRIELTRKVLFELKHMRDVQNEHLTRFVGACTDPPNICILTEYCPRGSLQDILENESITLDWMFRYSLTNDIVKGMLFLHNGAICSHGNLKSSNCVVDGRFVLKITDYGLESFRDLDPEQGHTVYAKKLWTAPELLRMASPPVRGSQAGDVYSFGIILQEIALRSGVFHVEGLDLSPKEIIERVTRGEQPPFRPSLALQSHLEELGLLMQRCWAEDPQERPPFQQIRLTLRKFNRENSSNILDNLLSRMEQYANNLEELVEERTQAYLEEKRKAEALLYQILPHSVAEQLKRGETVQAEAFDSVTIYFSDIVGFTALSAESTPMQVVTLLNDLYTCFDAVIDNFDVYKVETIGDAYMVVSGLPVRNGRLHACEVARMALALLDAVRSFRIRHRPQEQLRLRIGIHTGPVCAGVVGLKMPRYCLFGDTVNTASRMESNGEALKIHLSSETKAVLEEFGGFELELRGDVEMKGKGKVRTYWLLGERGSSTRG
In short: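 CHO cells stably expressing human GC-A, pre-incubated 10 min at room temperature in 1.6 mM IBMX/KRB, then exposed to test peptide 15 min in CO2 incubator. Lysate cGMP measured by HTRF. Activity (T/C) scaled so solvent-only = 0 and 1 nM ANP = 1.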

[2] = Detection in blood after subcutaneous administration to a monkey; format: in vivo
cGMP level in blood = cGMP level in blood after subcutaneous administration to a monkey; format: in vivo
[3] = system: cGMP concentration in plasma; test: cGMP concentration in plasma of rats after intravenous injection (Test Example 3); format: in vivo; conditions: rat, 100 nmol/kg i.v.
Experimental: The duration time (the effect of persistently elevating cGMP in blood and the time for which a test substance was detectable in blood) of each modified peptide prepared in Example 2 in the blood of rats was examined by the following method:
Before the administration and 15, 30, 60, 90, 120, 180, and 240 minutes after the administration, blood was sampled (200 μL/sampling) over time from the jugular vein. The blood samples were immediately left on ice.
The collected blood samples were centrifuged at 5000 rpm at 4° C. for 5 minutes by use of a centrifuge (Sigma 4K15, rotor: Nr12130-H). The separated plasma samples were divided into two types (samples for PK measurement and for cGMP measurement) and stored at −80° C. until measurement.
The cGMP concentration in plasma was measured using Amersham cGMP Enzyme Immunoassay Biotrak™ (EIA) System (dual range) according to the protocol attached thereto.

CC[C@H](C)[C@@H]1NC(=O)[C@H](CCCNC(=N)N)NC(=O)[C@H](CC(=O)O)NC(=O)[C@H](CCSC)NC(=O)[C@H](CCCNC(=N)N)NC(=O)CNC(=O)CNC(=O)[C@H](Cc2ccccc2)NC(=O)[C@@H](NC(=O)[C@H](CO)NC(=O)[C@H](CO)NC(=O)[C@H](CCCNC(=N)N)NC(=O)[C@H](CCCNC(=N)N)NC(=O)[C@H](CC(C)C)NC(=O)[C@H](CO)NC(=O)CCOCCOCCOCCOCCOCCOCCOCCOCCOCCOCCOCCOCCNC(=O)[C@H](CC(=O)N[C@@H]2O[C@H](CO)[C@@H](O[C@@H]3O[C@H](CO)[C@@H](O[C@@H]4O[C@H](CO[C@H]5O[C@H](CO)[C@@H](O)[C@H](O)[C@@H]5O[C@@H]5O[C@H](CO)[C@@H](O[C@@H]6O[C@H](CO[C@]7(C(=O)O)C[C@H](O)[C@@H](NC(C)=O)[C@H]([C@H](O)[C@H](O)CO)O7)[C@H](O)[C@H](O)[C@H]6O)[C@H](O)[C@H]5NC(C)=O)[C@@H](O)[C@H](O[C@H]5O[C@H](CO)[C@@H](O)[C@H](O)[C@@H]5O[C@@H]5O[C@H](CO)[C@@H](O[C@@H]6O[C@H](CO[C@]7(C(=O)O)C[C@H](O)[C@@H](NC(C)=O)[C@H]([C@H](O)[C@H](O)CO)O7)[C@H](O)[C@H](O)[C@H]6O)[C@H](O)[C@H]5NC(C)=O)[C@@H]4O)[C@H](O)[C@H]3NC(C)=O)[C@H](O)[C@H]2NC(C)=O)NC(=O)CO[C@@H]2O[C@H](CO)[C@@H](O[C@@H]3O[C@H](CO)[C@@H](O[C@@H]4O[C@H](CO[C@H]5O[C@H](CO)[C@@H](O)[C@H](O)[C@@H]5O[C@@H]5O[C@H](CO)[C@@H](O[C@@H]6O[C@H](CO[C@]7(C(=O)O)C[C@H](O)[C@@H](NC(C)=O)[C@H]([C@H](O)[C@H](O)CO)O7)[C@H](O)[C@H](O)[C@H]6O)[C@H](O)[C@H]5NC(C)=O)[C@@H](O)[C@H](O[C@H]5O[C@H](CO)[C@@H](O)[C@H](O)[C@@H]5O[C@@H]5O[C@H](CO)[C@@H](O[C@@H]6O[C@H](CO[C@]7(C(=O)O)C[C@H](O)[C@@H](NC(C)=O)[C@H]([C@H](O)[C@H](O)CO)O7)[C@H](O)[C@H](O)[C@H]6O)[C@H](O)[C@H]5NC(C)=O)[C@@H]4O)[C@H](O)[C@H]3NC(C)=O)[C@H](O)[C@H]2NC(C)=O)CSSC[C@@H](C(=O)N[C@@H](CC(N)=O)C(=O)N[C@@H](CO)C(=O)N[C@@H](Cc2ccccc2)C(=O)N[C@@H](CCCNC(=N)N)C(=O)N[C@@H](Cc2ccc(O)cc2)C(=O)O)NC(=O)CNC(=O)[C@H](CC(C)C)NC(=O)CNC(=O)[C@H](CO)NC(=O)[C@H](CCC(N)=O)NC(=O)[C@H](C)NC(=O)CNC1=O [Compound 2-27, SG-(SG-)Asn-PEG(11)-hANP(1-28)]
Maximum time of detection after administration [1]: 2 h
EC50 (human GC-A): 0.26 nM

CC[C@H](C)[C@@H]1NC(=O)[C@H](CCCNC(=N)N)NC(=O)[C@H](CC(=O)O)NC(=O)[C@H](CCSC)NC(=O)[C@H](CCCNC(=N)N)NC(=O)CNC(=O)CNC(=O)[C@H](Cc2ccccc2)NC(=O)[C@@H](NC(=O)[C@H](CO)NC(=O)[C@H](CO)NC(=O)[C@H](CCCNC(=N)N)NC(=O)[C@H](CCCNC(=N)N)NC(=O)[C@H](CC(C)C)NC(=O)[C@@H](N)CO)CSSC[C@@H](C(=O)N[C@@H](CC(N)=O)C(=O)N[C@@H](CO)C(=O)N[C@@H](Cc2ccccc2)C(=O)N[C@@H](CCCNC(=N)N)C(=O)N[C@@H](Cc2ccc(O)cc2)C(=O)O)NC(=O)CNC(=O)[C@H](CC(C)C)NC(=O)CNC(=O)[C@H](CO)NC(=O)[C@H](CCC(N)=O)NC(=O)[C@H](C)NC(=O)CNC1=O [Native hANP, hANP(1-28)]
Detection in blood after administration [2]: no longer detected in blood 30 minutes after the administration
Maximum time of detection after administration [1]: 0 h
Detection of test substance in plasma sample ([1]; rat, 15 minutes after the administration): no longer detected
Elevation of the cGMP level in blood after administration (cGMP level in blood): returns, 60 minutes after the administration, to the same level as that before the administration
AUC60-240 ([3]; plasma cGMP): ≤ 0 pmol·h/mL
All values integrated AUC 0-240 ([3]; plasma cGMP, 0 to 240 minutes, Pre-value as baseline, points under baseline negative): 13.90 (pmol/ml)*h
All values integrated AUC 60-240 ([3]; plasma cGMP, 60 to 240 minutes, Pre-value as baseline, points under baseline negative): −33.86 (pmol/ml)*h
Pre-value and higher values integrated AUC 60-240 ([3]; plasma cGMP, 60 to 240 minutes, only points above baseline): 0.00 (pmol/ml)*h
Elevation of cGMP in plasma at 60 minutes or later [3]: disappeared completely
cGMP level 30 minutes after the administration [3]: a level close to that before the start of the administration
